Measurements reported in patent US6358885B1, “Substituted phenylheterocyclic herbicides” (Mississippi State University, priority 1992, dated 2002).

Columns and labels:
Test in all cases: Test B preemergence/postemergence greenhouse plant response rating 0 to 10
cheatgrass = type: in vivo, Bromus secalinus; conditions: for Plant response rating, Cheatgrass: 0 to 10 scale
Summary of the method: (§1)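 Both application timings were run together: seeds got compound preemergence, and established seedlings (two to eighteen cm) got it postemergence. Non-phytotoxic solvent carried the chemical. Ratings are visual, versus controls, at twelve to sixteen days.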

corn = type: in vivo, Zea mays; conditions: for Plant response rating, Corn: 0 to 10 scale
Summary of the method: as §1

soybean = type: in vivo, Glycine max; conditions: for Plant response rating, Soybean: 0 to 10 scale
Summary of the method: as §1

giant foxtail = type: in vivo, Setaria faberii; conditions: for Plant response rating, Giant foxtail: 0 to 10 scale
Summary of the method: as §1

morningglory = type: in vivo, Ipomoea hederacea; conditions: for Plant response rating, Morningglory: 0 to 10 scale
Summary of the method: as §1

chickweed = type: in vivo, Stellaria media; conditions: for Plant response rating, Chickweed: 0 to 10 scale
Summary of the method: as §1

rape = type: in vivo, Brassica napus; conditions: for Plant response rating, Rape: 0 to 10 scale
Summary of the method: as §1

purple nutsedge = type: in vivo, Cyperus rotundus; conditions: for Plant response rating, Nutsedge: 0 to 10 scale
Summary of the method: as §1

blackgrass = type: in vivo, Alopecurus myosuroides; conditions: for Plant response rating, Blackgrass: 0 to 10 scale
Summary of the method: as §1

rice = type: in vivo, Oryza sativa; conditions: for Plant response rating, Rice: 0 to 10 scale
Summary of the method: as §1

cotton = type: in vivo, Gossypium hirsutum; conditions: for Plant response rating, Cotton: 0 to 10 scale
Summary of the method: as §1

barnyardgrass = type: in vivo, Echinochloa crus-galli; conditions: for Plant response rating, Barnyardgrass: 0 to 10 scale
Summary of the method: as §1

sugar beet = type: in vivo, Beta vulgaris; conditions: for Plant response rating, Sugar beet: 0 to 10 scale
Summary of the method: as §1

sorghum = type: in vivo, Sorghum bicolor; conditions: for Plant response rating, Sorghum: 0 to 10 scale
Summary of the method: as §1

wild oat = type: in vivo, Avena fatua; conditions: for Plant response rating, Wild oat: 0 to 10 scale
Summary of the method: as §1

lambsquarters = type: in vivo, Chenopodium album; conditions: for Plant response rating, Lambsquarter: 0 to 10 scale
Summary of the method: as §1

wheat = type: in vivo, Triticum aestivum; conditions: for Plant response rating, Wheat: 0 to 10 scale
Summary of the method: as §1

wild buckwheat = type: in vivo, Polygonum convolvulus; conditions: for Plant response rating, Wild buckwheat: 0 to 10 scale
Summary of the method: as §1

bedstraw = type: in vivo, Galium aparine; conditions: for Plant response rating, Bedstraw: 0 to 10 scale
Summary of the method: as §1

barley = type: in vivo, Hordeum vulgare; conditions: for Plant response rating, Barley: 0 to 10 scale
Summary of the method: as §1

velvetleaf = type: in vivo, Abutilon theophrasti; conditions: for Plant response rating, Velvetleaf: 0 to 10 scale
Summary of the method: as §1

crabgrass = type: in vivo, Digitaria spp.; conditions: for Plant response rating, Crabgrass: 0 to 10 scale
Summary of the method: as §1

cocklebur = type: in vivo, Xanthium pensylvanicum; conditions: for Plant response rating, Cocklebur: 0 to 10 scale
Summary of the method: as §1

## CON=C(C)c1cc(-c2nn3c(c2Cl)CCCC3)c(F)cc1Cl [Compound 82]
cheatgrass; POSTEMERGENCE, Rate 50 g/ha
  Plant response rating, Cheatgrass: 2
cheatgrass; PREEMERGENCE, Rate 50 g/ha
  Plant response rating, Cheatgrass: 2
cheatgrass; PREEMERGENCE, Rate 200 g/ha
  Plant response rating (0 to 10 scale), Cheatgrass: 6
cheatgrass; Rate 200 g/ha, POSTEMERGENCE
  Plant response rating, Cheatgrass: 3
corn; POSTEMERGENCE, Rate 50 g/ha
  Plant response rating, Corn: 3
corn; PREEMERGENCE, Rate 50 g/ha
  Plant response rating, Corn: 0
corn; PREEMERGENCE, Rate 200 g/ha
  Plant response rating (0 to 10 scale), Corn: 3
corn; Rate 200 g/ha, POSTEMERGENCE
  Plant response rating, Corn: 4
soybean; POSTEMERGENCE, Rate 50 g/ha
  Plant response rating, Soybean: 4
soybean; PREEMERGENCE, Rate 50 g/ha
  Plant response rating, Soybean: 0
soybean; PREEMERGENCE, Rate 200 g/ha
  Plant response rating (0 to 10 scale), Soybean: 6
soybean; Rate 200 g/ha, POSTEMERGENCE
  Plant response rating, Soybean: 6
Giant foxtail; POSTEMERGENCE, Rate 50 g/ha
  Plant response rating, Giant foxtail: 4
Giant foxtail; PREEMERGENCE, Rate 50 g/ha
  Plant response rating, Giant foxtail: 3
Giant foxtail; PREEMERGENCE, Rate 200 g/ha
  Plant response rating (0 to 10 scale), Giant foxtail: 6
Giant foxtail; Rate 200 g/ha, POSTEMERGENCE
  Plant response rating, Giant foxtail: 5
morningglory; POSTEMERGENCE, Rate 50 g/ha
  Plant response rating, Morningglory: 10
morningglory; PREEMERGENCE, Rate 50 g/ha
  Plant response rating, Morningglory: 0
morningglory; PREEMERGENCE, Rate 200 g/ha
  Plant response rating (0 to 10 scale), Morningglory: 2
morningglory; Rate 200 g/ha, POSTEMERGENCE
  Plant response rating, Morningglory: 10
chickweed; POSTEMERGENCE, Rate 50 g/ha
  Plant response rating, Chickweed: 2
chickweed; PREEMERGENCE, Rate 50 g/ha
  Plant response rating, Chickweed: 6
chickweed; PREEMERGENCE, Rate 200 g/ha
  Plant response rating (0 to 10 scale), Chickweed: 0
chickweed; Rate 200 g/ha, POSTEMERGENCE
  Plant response rating, Chickweed: 3
rape; POSTEMERGENCE, Rate 50 g/ha
  Plant response rating, Rape: 5
rape; PREEMERGENCE, Rate 50 g/ha
  Plant response rating, Rape: 0
rape; PREEMERGENCE, Rate 200 g/ha
  Plant response rating (0 to 10 scale), Rape: 6
rape; Rate 200 g/ha, POSTEMERGENCE
  Plant response rating, Rape: 7
Purple nutsedge; POSTEMERGENCE, Rate 50 g/ha
  Plant response rating, Nutsedge: 2
Purple nutsedge; PREEMERGENCE, Rate 50 g/ha
  Plant response rating, Nutsedge: 0
Purple nutsedge; PREEMERGENCE, Rate 200 g/ha
  Plant response rating (0 to 10 scale), Nutsedge: 0
Purple nutsedge; Rate 200 g/ha, POSTEMERGENCE
  Plant response rating, Nutsedge: 2
blackgrass; POSTEMERGENCE, Rate 50 g/ha
  Plant response rating, Blackgrass: 2
blackgrass; PREEMERGENCE, Rate 50 g/ha
  Plant response rating, Blackgrass: 0
blackgrass; PREEMERGENCE, Rate 200 g/ha
  Plant response rating (0 to 10 scale), Blackgrass: 4
blackgrass; Rate 200 g/ha, POSTEMERGENCE
  Plant response rating, Blackgrass: 3
rice; POSTEMERGENCE, Rate 50 g/ha
  Plant response rating, Rice: 4
rice; PREEMERGENCE, Rate 50 g/ha
  Plant response rating, Rice: 0
rice; PREEMERGENCE, Rate 200 g/ha
  Plant response rating (0 to 10 scale), Rice: 2
rice; Rate 200 g/ha, POSTEMERGENCE
  Plant response rating, Rice: 6
cotton; POSTEMERGENCE, Rate 50 g/ha
  Plant response rating, Cotton: 10
cotton; PREEMERGENCE, Rate 50 g/ha
  Plant response rating, Cotton: 0
cotton; PREEMERGENCE, Rate 200 g/ha
  Plant response rating (0 to 10 scale), Cotton: 1
cotton; Rate 200 g/ha, POSTEMERGENCE
  Plant response rating, Cotton: 10
barnyardgrass; POSTEMERGENCE, Rate 50 g/ha
  Plant response rating, Barnyardgrass: 6
barnyardgrass; PREEMERGENCE, Rate 50 g/ha
  Plant response rating, Barnyardgrass: 2
barnyardgrass; PREEMERGENCE, Rate 200 g/ha
  Plant response rating (0 to 10 scale), Barnyardgrass: 6
barnyardgrass; Rate 200 g/ha, POSTEMERGENCE
  Plant response rating, Barnyardgrass: 7
Sugar beet; POSTEMERGENCE, Rate 50 g/ha
  Plant response rating, Sugar beet: 10
Sugar beet; PREEMERGENCE, Rate 50 g/ha
  Plant response rating, Sugar beet: 8
Sugar beet; PREEMERGENCE, Rate 200 g/ha
  Plant response rating (0 to 10 scale), Sugar beet: 10
Sugar beet; Rate 200 g/ha, POSTEMERGENCE
  Plant response rating, Sugar beet: 10
sorghum; POSTEMERGENCE, Rate 50 g/ha
  Plant response rating, Sorghum: 2
sorghum; PREEMERGENCE, Rate 50 g/ha
  Plant response rating, Sorghum: 0
sorghum; PREEMERGENCE, Rate 200 g/ha
  Plant response rating (0 to 10 scale), Sorghum: 2
sorghum; Rate 200 g/ha, POSTEMERGENCE
  Plant response rating, Sorghum: 4
Wild oat; POSTEMERGENCE, Rate 50 g/ha
  Plant response rating, Wild oat: 2
Wild oat; PREEMERGENCE, Rate 50 g/ha
  Plant response rating, Wild oat: 2
Wild oat; PREEMERGENCE, Rate 200 g/ha
  Plant response rating (0 to 10 scale), Wild oat: 7
Wild oat; Rate 200 g/ha, POSTEMERGENCE
  Plant response rating, Wild oat: 4
lambsquarters; POSTEMERGENCE, Rate 50 g/ha
  Plant response rating, Lambsquarter: 7
lambsquarters; PREEMERGENCE, Rate 50 g/ha
  Plant response rating, Lambsquarter: 10
lambsquarters; PREEMERGENCE, Rate 200 g/ha
  Plant response rating (0 to 10 scale), Lambsquarter: 10
lambsquarters; Rate 200 g/ha, POSTEMERGENCE
  Plant response rating, Lambsquarter: 9
wheat; POSTEMERGENCE, Rate 50 g/ha
  Plant response rating, Wheat: 3
wheat; PREEMERGENCE, Rate 50 g/ha
  Plant response rating, Wheat: 0
wheat; PREEMERGENCE, Rate 200 g/ha
  Plant response rating (0 to 10 scale), Wheat: 2
wheat; Rate 200 g/ha, POSTEMERGENCE
  Plant response rating, Wheat: 4
Wild buckwheat; POSTEMERGENCE, Rate 50 g/ha
  Plant response rating, Wild buckwheat: 10
Wild buckwheat; PREEMERGENCE, Rate 50 g/ha
  Plant response rating, Wild buckwheat: 7
Wild buckwheat; PREEMERGENCE, Rate 200 g/ha
  Plant response rating (0 to 10 scale), Wild buckwheat: 9
Wild buckwheat; Rate 200 g/ha, POSTEMERGENCE
  Plant response rating, Wild buckwheat: 10
bedstraw; POSTEMERGENCE, Rate 50 g/ha
  Plant response rating, Bedstraw: 8
bedstraw; PREEMERGENCE, Rate 50 g/ha
  Plant response rating, Bedstraw: 0
bedstraw; PREEMERGENCE, Rate 200 g/ha
  Plant response rating (0 to 10 scale), Bedstraw: 9
bedstraw; Rate 200 g/ha, POSTEMERGENCE
  Plant response rating, Bedstraw: 9
barley; POSTEMERGENCE, Rate 50 g/ha
  Plant response rating, Barley: 2
barley; PREEMERGENCE, Rate 50 g/ha
  Plant response rating, Barley: 0
barley; PREEMERGENCE, Rate 200 g/ha
  Plant response rating (0 to 10 scale), Barley: 0
barley; Rate 200 g/ha, POSTEMERGENCE
  Plant response rating, Barley: 3
velvetleaf; POSTEMERGENCE, Rate 50 g/ha
  Plant response rating, Velvetleaf: 10
velvetleaf; PREEMERGENCE, Rate 50 g/ha
  Plant response rating, Velvetleaf: 0
velvetleaf; PREEMERGENCE, Rate 200 g/ha
  Plant response rating (0 to 10 scale), Velvetleaf: 10
velvetleaf; Rate 200 g/ha, POSTEMERGENCE
  Plant response rating, Velvetleaf: 10
crabgrass; POSTEMERGENCE, Rate 50 g/ha
  Plant response rating, Crabgrass: 3
crabgrass; PREEMERGENCE, Rate 50 g/ha
  Plant response rating, Crabgrass: 3
crabgrass; PREEMERGENCE, Rate 200 g/ha
  Plant response rating (0 to 10 scale), Crabgrass: 7
crabgrass; Rate 200 g/ha, POSTEMERGENCE
  Plant response rating, Crabgrass: 4
cocklebur; POSTEMERGENCE, Rate 50 g/ha
  Plant response rating, Cocklebur: 7
cocklebur; PREEMERGENCE, Rate 50 g/ha
  Plant response rating, Cocklebur: 0
cocklebur; PREEMERGENCE, Rate 200 g/ha
  Plant response rating (0 to 10 scale), Cocklebur: 0
cocklebur; Rate 200 g/ha, POSTEMERGENCE
  Plant response rating, Cocklebur: 8
